“And” between values parts separate entries of the source, which are not always exact repeats. Equal values may be shown once. Read-outs that look alike come from different tables or passages of the source.
Experiments:
[1] = target: fVIIa-sTF (Homo sapiens, UniProt P08709); test: fVIIa-sTF inhibitory assay; type: biochemical; details: for EC50: 95% confidence using GraphPad Prism 7; for Thrombin/FVIIa-sTF EC50 Ratio: thrombin EC50 divided by fVIIa-sTF EC50
Description: The compounds isolated from M. aeruginosa K139 were subjected to fVIIa-sTF and thrombin assays at 10 μg/mL and 100 μg/mL. […] Our microviridin B was isolated from the strain of M. aeruginosa K139. […] We used ethanol or water as negative controls.
The fVIIa-sTF and thrombin assays have been previously described in previous papers. […] A 1 mg/mL EtOH solution was prepared and independently diluted to make 750, 500, 250, 100, 75, 50, 25, 10, 5.0, 2.5, and 1.0 μg/mL. The same experimental procedure was done in all fVIIa-sTF and thrombin assays as previously described. A 20-μL solution was added in each well, in replicate, to make a final concentration of 100, 75, 50, 250, 100, 75, 50, 25, 10, 5.0, 2.5, and 1.0 μg/mL.

[2] = target: T1, thrombin (Homo sapiens, UniProt P00734); test: thrombin inhibitory assay; type: biochemical; details: for thrombin inhibition (in words): at 10 μg/mL and 100 μg/mL (low and high doses)
T1 construct: subjected to fVIIa-sTF and thrombin assays
Description: The compounds isolated from M. aeruginosa K139 were subjected to fVIIa-sTF and thrombin assays at 10 μg/mL and 100 μg/mL. […] The micropeptin K139 gave a favorable fVIIa-sTF activity at 10 μg/mL and 100 μg/mL with inhibitory activity greater than 50% and 85%, respectively. […] The EC50 of each compound was computed by GraphPad Prism 7 [34], with 95% confidence. […] A difference in activity for the same compound may be attributed to the different cyanobacterial strains used in the study. Our microviridin B was isolated from the strain of M. aeruginosa K139. Okino’s group isolated the compound from the NIES-102 cyanobacterial strain. […]. […] We used ethanol or water as negative controls.
The fVIIa-sTF and thrombin assays have been previously described in previous papers. The half maximal effective concentration (EC50) compounds isolated from M. aeruginosa K139 was done in three plates, with two replicates in each of plate. A 1 mg/mL EtOH solution was prepared and independently diluted to make 750, 500, 250, 100, 75, 50, 25, 10, 5.0, 2.5, and 1.0 μg/mL. The same experimental procedure was done in all fVIIa-sTF and thrombin assays as previously described. A 20-μL solution was added in each well, in replicate, to make a final concentration of 100, 75, 50, 250, 100, 75, 50, 25, 10, 5.0, 2.5, and 1.0 μg/mL. The EC50 was calculated from GraphPad Prism 7^© [34], with 95% confidence.

[3] = system: chymotrypsin; parameters: method as in PMID 19260658; details: literature; cited from earlier work
[4] = target: T1, thrombin; details: literature, cited from earlier work
[5] = 95% confidence using GraphPad Prism 7, read-out: Thrombin: EC50

fVIIa-sTF, sequence (P08709 61-212 limits assumed): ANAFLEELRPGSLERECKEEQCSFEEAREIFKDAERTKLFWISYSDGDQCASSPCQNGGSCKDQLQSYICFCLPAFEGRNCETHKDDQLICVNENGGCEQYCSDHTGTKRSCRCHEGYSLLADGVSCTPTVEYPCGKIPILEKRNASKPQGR
fVIIa-sTF, sequence (P08709 213-466 limits assumed): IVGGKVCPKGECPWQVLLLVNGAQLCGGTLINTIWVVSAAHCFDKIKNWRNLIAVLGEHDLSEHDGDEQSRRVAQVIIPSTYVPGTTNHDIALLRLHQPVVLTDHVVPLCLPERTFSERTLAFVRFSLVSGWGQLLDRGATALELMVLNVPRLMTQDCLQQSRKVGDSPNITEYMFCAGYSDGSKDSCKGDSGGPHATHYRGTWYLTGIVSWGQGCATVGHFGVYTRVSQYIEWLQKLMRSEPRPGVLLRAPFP
fVIIa-sTF, sequence (P13726 33-251 partner limits assumed): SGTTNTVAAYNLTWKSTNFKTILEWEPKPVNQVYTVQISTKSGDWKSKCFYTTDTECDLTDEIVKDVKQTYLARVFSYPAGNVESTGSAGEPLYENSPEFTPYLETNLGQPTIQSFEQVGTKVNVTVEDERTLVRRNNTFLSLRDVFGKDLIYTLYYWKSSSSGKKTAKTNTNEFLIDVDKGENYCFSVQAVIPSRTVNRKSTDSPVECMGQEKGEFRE

## CC(=O)N[C@@H](CC(C)C)C(=O)N[C@@H](CC(C)C)C(=O)N[C@H](C=O)CCCNC(=N)N [Leupeptin]
[1]
  EC50: 14 µM
  Thrombin/FVIIa-sTF EC50 Ratio: 1.31
[2]; [5]
  EC50: 18.3 µM

## CCCCCCCC(=O)N[C@@H](CCC(=O)O)C(=O)N[C@@H]1C(=O)N[C@@H](Cc2ccc(O)cc2)C(=O)N[C@H]2CC[C@@H](O)N(C2=O)[C@@H](Cc2ccccc2)C(=O)N(C)[C@@H](Cc2ccc(O)cc2)C(=O)N[C@@H](C(C)C)C(=O)O[C@@H]1C [micropeptin D]
[3]
  chymotrypsin EC50: 1.2 µg/mL

## CC(C)CC(NC(=O)C(O)Cc1ccc(O)cc1)C(=O)N1C(C(=O)NC2CCCN(C(=N)N)C2O)CC2CCC(O)CC21 [Aeruginosin K139, L-Hpla-L-Leu-L-Choi-L-Argal]
[1]
  EC50: 166 µM and ~166 µM
  Thrombin/FVIIa-sTF EC50 Ratio: 0.004
[1]; at 100 μg/mL
  fVIIa-sTF inhibitory activity (in words): active
[2]; [5]
  EC50: 0.66 µM
[2]
  thrombin inhibition (in words): inhibited thrombin

## CCCCCC(=O)N[C@@H](CC(=O)O)C(=O)N[C@@H]1C(=O)N[C@@H](CCCNC(=N)N)C(=O)N[C@H]2CC[C@@H](O)N(C2=O)[C@@H]([C@@H](C)CC)C(=O)N(C)[C@@H](Cc2ccc(O)cc2)C(=O)N[C@@H]([C@@H](C)CC)C(=O)O[C@@H]1C [Micropeptin K139]
[1]
  EC50: 10.6 µM
  Thrombin/FVIIa-sTF EC50 Ratio: 2.54
[1]; at 10 μg/mL
  inhibition at 10 µg/mL: > 50%
[1]; at 100 μg/mL
  inhibition at 100 µg/mL: > 85%
[1]; listed as micropeptin K139
  Thrombin/FVIIa-sTF EC50 Ratio: greater than one
[2]; [5]
  EC50: 26.9 µM
[2]
  thrombin inhibition (in words): inhibited thrombin

## CC[C@H](C)[C@@H]1NC(=O)[C@H](Cc2ccc(O)cc2)N(C)C(=O)[C@H](CC(C)C)N2C(=O)[C@H](CC[C@H]2O)NC(=O)[C@H](Cc2ccc(O)cc2)NC(=O)[C@@H](NC(=O)[C@H](CCC(N)=O)NC(=O)[C@H](O)Cc2ccc(O)cc2)[C@@H](C)OC1=O [917S-A]
[1]; at 100 μg/mL
  fVIIa-sTF inhibitory activity (in words): negative inhibitory activity

## CCCCCC(=O)N[C@@H](CCC(=O)O)C(=O)N[C@@H]1C(=O)N[C@@H](Cc2ccc(O)cc2)C(=O)N[C@H]2CC[C@@H](O)N(C2=O)[C@@H](CC(C)C)C(=O)N(C)[C@@H](Cc2ccc(O)cc2)C(=O)N[C@@H](C(C)C)C(=O)O[C@@H]1C [micropeptin E]
[3]
  chymotrypsin EC50: 1.0 µg/mL

## CCCCCCCC(=O)N[C@@H](CCC(=O)O)C(=O)N[C@@H]1C(=O)N[C@@H](CCCCN)C(=O)N[C@H]2CC[C@@H](O)N(C2=O)[C@@H](CC(C)C)C(=O)N(C)[C@@H](Cc2ccc(O)cc2)C(=O)N[C@@H](C(C)C)C(=O)O[C@@H]1C [micropeptin A]
[4]
  thrombin inhibitory assay (in words): inactive
[4]; listed as Micropeptin A
  thrombin inhibitory assay (in words): does not inhibit thrombin

## CCC(C)C1NC(=O)C(Cc2ccc(O)cc2)N(C)C(=O)C(CC(C)C)N2C(=O)C(CCC2O)NC(=O)C(CC2C=CC(O)CC2)NC(=O)C(NC(=O)C(CCC(N)=O)NC(=O)C(O)Cc2ccc(O)cc2)C(C)OC1=O (stereo not drawn) [917S-B]
[1]; at 100 μg/mL
  fVIIa-sTF inhibitory activity (in words): negative inhibitory activity

## CCCCCCCC(=O)N[C@@H](CCC(=O)O)C(=O)N[C@@H]1C(=O)N[C@@H](Cc2ccc(O)cc2)C(=O)N[C@H]2CC[C@@H](O)N(C2=O)[C@@H](CC(C)C)C(=O)N(C)[C@@H](Cc2ccc(O)cc2)C(=O)N[C@@H](C(C)C)C(=O)O[C@@H]1C [micropeptin F]
[3]
  chymotrypsin EC50: 1.5 µg/mL

## CC[C@H](C)[C@@H]1NC(=O)[C@H](Cc2ccc(O)cc2)N(C)C(=O)[C@H](CC(C)C)N2C(=O)[C@H](CC[C@H]2O)NC(=O)[C@H](CC(C)C)NC(=O)[C@@H](NC(=O)[C@H](CCC(N)=O)NC(=O)[C@H](O)Cc2ccc(O)cc2)[C@@H](C)OC1=O [917S-C]
[1]; at 100 μg/mL
  fVIIa-sTF inhibitory activity (in words): negative inhibitory activity

## CCCCCC(=O)N[C@@H](CCC(=O)O)C(=O)N[C@@H]1C(=O)N[C@@H](Cc2ccc(O)cc2)C(=O)N[C@H]2CC[C@@H](O)N(C2=O)[C@@H](Cc2ccccc2)C(=O)N(C)[C@@H](Cc2ccc(O)cc2)C(=O)N[C@@H](C(C)C)C(=O)O[C@@H]1C [micropeptin C]
[3]
  chymotrypsin EC50: 1.1 µg/mL

## N=C(N)c1ccc(CS(=O)(=O)F)cc1 [APMSF, 4-amidinophenylmethanesulfonylfluoride]
[2]
  EC50: 2.1 µM

From article PMC5618414, “FVIIa-sTF and Thrombin Inhibitory Activities of Compounds Isolated from Microcystis aeruginosa K-139” (Marine Drugs, 2017)
